Measured values from PMC7930289 (Heliyon, 2021).

What was measured:
Na+/K+-ATPase = details: read-out: Ki (Na+/K+-ATPase activity); cited from earlier work
[1] = biological target: hPMCA4 overexpressed in HEK293T cells (Homo sapiens, UniProt P23634); assay: Dynamics of cytoplasmic Ca2+ in HEK293T cells overexpressing hPMCA4; format: cell-based; details: 50 μM, 30 min; for AUC of [Ca2+]CYT after TG addition: 2 μM TG
hPMCA4 overexpressed in HEK293T cells, sequence (P23634 1-1205 isoform P23634-6): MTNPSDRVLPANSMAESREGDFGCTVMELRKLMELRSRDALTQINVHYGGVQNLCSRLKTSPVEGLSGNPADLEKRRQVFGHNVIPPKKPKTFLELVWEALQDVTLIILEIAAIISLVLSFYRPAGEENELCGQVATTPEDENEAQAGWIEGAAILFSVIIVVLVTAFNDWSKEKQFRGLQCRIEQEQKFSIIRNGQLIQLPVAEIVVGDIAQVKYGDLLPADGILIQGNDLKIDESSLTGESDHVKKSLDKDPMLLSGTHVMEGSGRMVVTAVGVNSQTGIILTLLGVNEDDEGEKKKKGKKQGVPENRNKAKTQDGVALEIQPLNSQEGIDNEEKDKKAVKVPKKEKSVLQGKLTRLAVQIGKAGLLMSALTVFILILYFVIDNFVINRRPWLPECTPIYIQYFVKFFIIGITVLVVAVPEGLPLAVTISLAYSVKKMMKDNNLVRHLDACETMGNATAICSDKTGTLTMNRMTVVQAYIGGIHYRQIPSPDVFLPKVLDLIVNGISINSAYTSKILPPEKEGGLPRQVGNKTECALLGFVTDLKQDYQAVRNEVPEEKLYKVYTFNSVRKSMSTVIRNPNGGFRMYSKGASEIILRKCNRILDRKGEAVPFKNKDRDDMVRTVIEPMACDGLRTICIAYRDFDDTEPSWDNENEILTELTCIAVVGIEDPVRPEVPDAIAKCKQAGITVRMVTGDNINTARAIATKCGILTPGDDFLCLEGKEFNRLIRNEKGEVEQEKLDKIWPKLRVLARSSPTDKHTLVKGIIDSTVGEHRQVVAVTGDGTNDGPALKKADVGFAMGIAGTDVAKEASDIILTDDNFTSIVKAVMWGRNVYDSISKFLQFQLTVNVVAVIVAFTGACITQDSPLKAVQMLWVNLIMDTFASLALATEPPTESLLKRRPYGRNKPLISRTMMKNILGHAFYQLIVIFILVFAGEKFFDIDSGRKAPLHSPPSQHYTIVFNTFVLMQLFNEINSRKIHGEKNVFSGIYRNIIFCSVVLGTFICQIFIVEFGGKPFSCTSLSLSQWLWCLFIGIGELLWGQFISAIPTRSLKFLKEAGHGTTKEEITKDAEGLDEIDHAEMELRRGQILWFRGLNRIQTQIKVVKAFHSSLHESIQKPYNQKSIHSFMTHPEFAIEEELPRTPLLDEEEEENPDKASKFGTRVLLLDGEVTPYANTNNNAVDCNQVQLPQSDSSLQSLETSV

hPMCA4 activity in HEK293T cells (Eq. 6) [1]: significantly decreased
AUC of [Ca2+]CYT after TG addition ([1]; HEK293T-hPMCA4 cells): induced an increase in the AUC value
AUC of [Ca2+]CYT after TG addition ([1]; HEK293T-mock cells): no significant effect
SMILES: O=C(O[C@@H]1Cc2c(O)cc(O)cc2O[C@@H]1c1cc(O)c(O)c(O)c1)c1cc(O)c(O)c(O)c1 [EGCG, (−)-cis-3,3′,4′,5,5′,7-Hexahydroxy-flavane-3-gallate]
Ki (Na+/K+-ATPase): 1000 nM
